Laboratory results: the supplement of paper PMC10307832

Key:
Assay in all cases: relative viability (nuclei count vs DMSO), 5 days (fraction); higher = more cells survive
[1] = compound: CC(C)(C)c1nc(-c2cccc(NS(=O)(=O)c3c(F)cccc3F)c2F)c(-c2ccnc(N)n2)s1 [Dabrafenib] + CCNC(=O)c1noc(-c2cc(C(C)C)c(O)cc2O)c1-c1ccc(CN2CCOCC2)cc1 [Luminespib] (partner 0.01 µM)
How it was run: (§1)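 Relative viability is defined as nuclei in treated wells over nuclei in vehicle wells. Duplicate plates were run and medians reported. Lung cancer cell lines in 1536-well plates were dosed by pin tool one day after seeding, with one drug or with a fixed anchor-drug dose plus five library-drug doses (not always all listed) in √10 steps, and nuclei were counted after 5 days.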

[2] = compound: CC(C)(C)c1nc(-c2cccc(NS(=O)(=O)c3c(F)cccc3F)c2F)c(-c2ccnc(N)n2)s1 [Dabrafenib] + NC(=O)Nc1cc(-c2cccc(F)c2)sc1C(=O)N[C@H]1CCCNC1 [AZD7762] (partner 0.2 µM)
How it was run: as §1

[3] = compound: CC(C)(C)c1nc(-c2cccc(NS(=O)(=O)c3c(F)cccc3F)c2F)c(-c2ccnc(N)n2)s1 [Dabrafenib] + CC(=O)c1c(C)c2cnc(Nc3ccc(N4CCNCC4)cn3)nc2n(C2CCCC2)c1=O [Palbociclib] (partner 0.5 µM)
How it was run: as §1

[4] = compound: NC(=O)c1ccc(N(C(N)=O)c2c(F)cccc2F)nc1-c1ccc(F)cc1F [VX-702] + CC(=O)c1c(C)c2cnc(Nc3ccc(N4CCNCC4)cn3)nc2n(C2CCCC2)c1=O [Palbociclib] (partner 0.5 µM)
How it was run: as §1

| Cell Line | relative viability ([1]; first compound 0.009487 µM) | relative viability ([1]; first compound 0.03 µM) | relative viability ([1]; first compound 0.09487 µM) | relative viability ([1]; first compound 0.3 µM) | relative viability ([2]; first compound 0.009487 µM) | relative viability ([2]; first compound 0.03 µM) | relative viability ([2]; first compound 0.09487 µM) | relative viability ([2]; first compound 0.3 µM) | relative viability ([3]; first compound 0.003 µM) | relative viability ([3]; first compound 0.009487 µM) | relative viability ([3]; first compound 0.03 µM) | relative viability ([3]; first compound 0.09487 µM) | relative viability ([3]; first compound 0.3 µM) | relative viability ([1]; first compound 0.003 µM) | relative viability ([4]; first compound 0.02 µM) | relative viability ([4]; first compound 0.2 µM) | relative viability ([4]; first compound 0.6325 µM) | relative viability ([4]; first compound 2 µM) | relative viability ([2]; first compound 0.003 µM) |
| --- | --- | --- | --- | --- | --- | --- | --- | --- | --- | --- | --- | --- | --- | --- | --- | --- | --- | --- | --- |
| NCI-H596 | 1.03 | 0.691 | 0.885 | 0.927 | 1.2 | 0.958 | 1.14 | 1.16 | – | – | – | – | – | – | – | – | – | – | – |
| NCI-H661 | 0.927 | 0.912 | 0.758 | 0.855 | – | – | – | – | 0.383 | 0.406 | 0.426 | 0.458 | 0.433 | 0.985 | 0.413 | 0.409 | 0.409 | 0.408 | – |
| NCI-H1563 | 0.491 | 0.508 | 0.515 | 0.574 | – | – | – | – | – | – | – | – | – | 0.48 | – | – | – | – | – |
| NCI-H1623 | 0.534 | 0.479 | 0.579 | 0.553 | – | – | – | – | – | – | – | – | – | – | – | – | – | – | – |
| NCI-H1648 | – | – | – | – | 0.797 | – | 0.611 | 0.802 | 0.317 | 0.215 | – | 0.251 | 0.329 | – | 0.268 | 0.294 | 0.244 | 0.319 | 0.638 |
| NCI-H1650 | 0.201 | 0.229 | 0.221 | 0.188 | – | – | – | – | 0.332 | 0.382 | 0.235 | 0.301 | 0.358 | 0.172 | 0.325 | 0.35 | 0.445 | 0.297 | – |
| NCI-H1703 | – | – | – | – | – | – | – | 0.136 | – | – | – | – | – | – | – | – | – | – | – |
| NCI-H2009 | 0.967 | 0.911 | 0.879 | 0.79 | – | – | – | – | 0.153 | 0.22 | 0.179 | 0.149 | 0.128 | 1.01 | 0.247 | 0.25 | 0.257 | 0.246 | – |
| NCI-H2023 | 0.817 | 0.755 | 0.661 | 0.84 | – | – | – | – | 0.419 | 0.417 | 0.48 | 0.371 | 0.421 | 0.866 | 0.381 | 0.347 | 0.404 | 0.436 | – |
| NCI-H2228 | 0.184 | 0.147 | 0.118 | 0.165 | – | – | – | – | 0.502 | 0.801 | 0.753 | 0.668 | 0.7 | – | 0.604 | 0.763 | 0.676 | 1.07 | – |
| SK-LU-1 | 0.234 | 0.169 | 0.22 | 0.201 | – | – | – | – | – | 0.395 | 0.238 | 0.365 | 0.371 | – | 0.38 | 0.355 | 0.382 | 0.395 | – |
| SK-MES-1 | 0.973 | 0.86 | 0.8 | 0.688 | – | – | – | – | – | 0.296 | 0.27 | 0.258 | 0.31 | 0.676 | 0.334 | 0.312 | 0.293 | 0.314 | – |
| SW 1573 | 0.314 | 0.289 | 0.633 | 0.217 | – | – | – | – | 0.431 | 0.484 | 0.363 | 0.349 | 0.392 | 0.179 | 0.422 | 0.395 | 0.32 | 0.318 | – |
| UMC-11 | 1.12 | 0.85 | 0.939 | 1.07 | – | – | – | – | 0.33 | 0.31 | 0.288 | 0.327 | 0.349 | 1.14 | 0.319 | 0.327 | 0.336 | 0.309 | – |
